These results are taken from PMC10967730, “Identification and Functional Validation of Two Novel Antioxidant Peptides in Saffron” (Antioxidants, 2024).

Series [1] has as its system HepG2 cells. As to the kind of experiment: MTT cell viability of HepG2 cells. The conditions noted are these: for Effect on the viability of HepG2 cells: MTT, peptide 0.01–0.1 mg/mL.
Protocol: The HepG2 cells were cultured in DMEM (Gibco, New York, NY, USA) containing 10% (v/v) fetal bovine serum (HyClone, Logan, UT, USA) and 1% (v/v) penicillin/streptomycin (Gibco, New York, NY, USA) at 37 °C and 5% CO2.
The cells were passaged every 2 days, with a passage ratio of 1:2 when the cells grew to more than 80% confluence. Then, the HepG2 cells were distributed in 96-well culture plates at a density of 2.5 × 10^4 cells per well. When the cells were cultured for 24 h in DMEM medium, the medium was removed and replaced with a new medium containing various concentrations of H2O2 (100 mM, 300 mM, 500 mM, 700 mM, 900 mM, and 1100 mM), and the control cells were grown in DMEM. MTT (3-(4,5-dimethylthiazol2-yl)-2,5-diphenyltetrazolium bromide; Sigma-Aldrich, St. Louis, MO, USA) was added to the wells and the cells were incubated for 2 h at 37 °C. Then, DMSO was added to the wells for dissolution of formazan granules produced by the live cells and the absorbance measurements were performed at 540 nm to ensure the half inhibitory concentration (IC50) of H2O2 [30].
The safe and harmless peptide concentrations were also determined by the above method. Different concentrations of peptides (0.01 mg/mL, 0.02 mg/mL, 0.04 mg/mL, 0.06 mg/mL, 0.08 mg/mL, and 0.1 mg/mL) also act on cells, and cell viability was detected by MTT to screen out the safe and harmless peptide concentrations.
For series [2] the following is noted: cited from earlier work. An excerpt: Subsequently, the ABTS method was utilized to determine the total antioxidant activity of the stigma protein. […] We screened 289 saffron antioxidant peptides by comparing with the BIOPEP database. Among them, the saffron peptides with high abundance in the range from tetrapeptide to decapeptide were selected. […] It has been reported that hydrophobic a ...

Ends that are not written are not given here.

`OO` [H2O2]: the Cell viability decline entry in series [1] (HepG2, MTT, H2O2 300 mM) was “about 50%”.

Take `N[C@@H](Cc1ccccc1)C(=O)O` [Phe]: in series [2], the “Concentration at which ABTS scavenging activity is shown” value is reported as 10^−3 mol/L.

In the case of DGGSDYLGK [DGGSDYLGK], the “Effect on the viability of HepG2 cells” value in series [1] is recorded as “no significant effects”.

Take VDPYFNK [VDPYFNK]: in series [1], the “Effect on the viability of HepG2 cells” value is given as “no significant effects”.
